Laboratory results published in patent US20040156930A1, “Treating mouth ulcers with patches to speed healing and relieve pain” (priority 2002, published 2004).

Tests used:
[1] = system: canker sores (aphthous ulcers); details: topical application, reported in literature; cited from earlier work
[2] = system: canker sores (aphthous ulcers); test: Inventor's trials of oral patches with licorice root extract or amoxicillin on canker sores; assay type: in vivo, human
Method: For medication to be placed in the patch, any of the above-mentioned antimicrobials, or similar antimicrobials, may be used. […] A preferred quantity of licorice extract in each patch that lasts 1 to 6 hours is 20 to 95 milligrams.
In the testing, conventional amoxicillin powder for preparation of oral suspension was used, which includes sugars and other excipients. The sugars act as a binder to the sponge of the oral patch. The oral suspension is massaged into the patch and dried. Preferably, the amoxicillin powder is mixed into a stronger than normal liquid form before being added to the patch.

Molecule	healing of canker sores [1]	other results
CN(C)CCOC(c1ccccc1)c1ccccc1 [diphenhydramine]	reported to speed healing of canker sores	–
NC(N)=O.OO [carbamide peroxide]	reported to speed healing of canker sores	–
CC1(C)S[C@@H]2[C@H](NC(=O)[C@H](N)c3ccc(O)cc3)C(=O)N2[C@H]1C(=O)O [amoxicillin]	shown effective	effectiveness on canker sores ([2]; amoxicillin powder for oral suspension on conventional patches): works quite well; typical duration of each canker sore ([2]; in a patch applied for half of the hours, day and night, typically 10-14 days without treatment): ~2 days; results of treatment of canker sores ([2]; patch keeping medication on or near the sore about half of the hours in a day over 2 days): nearly always effective; results of treatment of canker sores ([2]; troche, gel, paste or liquid applied six times per day for 2 days): nearly always ineffective
OO [hydrogen peroxide]	reported to speed healing of canker sores	–
N=C(NCCCCCCNC(=N)NC(=N)Nc1ccc(Cl)cc1)NC(=N)Nc1ccc(Cl)cc1.O=C(O)[C@H](O)[C@@H](O)[C@H](O)[C@H](O)CO.O=C(O)[C@H](O)[C@@H](O)[C@H](O)[C@H](O)CO [chlorhexidine gluconate]	reported to speed healing of canker sores	–
penicillin	shown to speed healing of canker sores	–
